Legend:
S. cerevisiae (Scer) = experiment: MIC broth microdilution, S. cerevisiae (Scer)
C. albicans (Ctro) = experiment: MIC broth microdilution, C. albicans (Ctro)
C. albicans (Calb) = experiment: MIC broth microdilution, C. albicans (Calb)
C. glabrata (Cgla) = experiment: MIC broth microdilution, C. glabrata (Cgla)
Candida sp. (Cflu) = experiment: MIC broth microdilution, Candida sp. (Cflu)

| Compound | Minimal Inhibitory Concentrations (S. cerevisiae (Scer); 24 hrs) [µg/mL] | Minimal Inhibitory Concentrations (S. cerevisiae (Scer); 48 hrs) [µg/mL] | Minimal Inhibitory Concentrations (C. albicans (Ctro); 24 hrs) [µg/mL] | Minimal Inhibitory Concentrations (C. albicans (Ctro); 48 hrs) [µg/mL] | Minimal Inhibitory Concentrations (C. albicans (Calb); 24 hrs) [µg/mL] | Minimal Inhibitory Concentrations (C. albicans (Calb); 48 hrs) [µg/mL] | Minimal Inhibitory Concentrations (C. glabrata (Cgla); 24 hrs) [µg/mL] | Minimal Inhibitory Concentrations (C. glabrata (Cgla); 48 hrs) [µg/mL] | Minimal Inhibitory Concentrations (Candida sp. (Cflu); 24 hrs) [µg/mL] | Minimal Inhibitory Concentrations (Candida sp. (Cflu); 48 hrs) [µg/mL] |
| --- | --- | --- | --- | --- | --- | --- | --- | --- | --- | --- |
| C[C@@H]1[C@H](O)[C@@H](C)/C=C/C=C/C=C/C=C/C=C/C=C/C=C/[C@H](O[C@@H]2O[C@H](C)[C@@H](O)[C@H](N)[C@@H]2O)C[C@@H]2O[C@](O)(C[C@@H](O)C[C@@H](O)[C@H](O)CC[C@@H](O)C[C@@H](O)CC(=O)O[C@H]1C)C[C@H](O)[C@H]2C(=O)O [Amphotericin B] | 0.5 | 1 | 1 | 2 | 0.5 to 1 | 1 | 0.5 to 1 | 1 | 0.5 to 1 | 1 |
| C\C(=C/C=C/C=C/CC/C=C/C(C)C(O)C(C)C(O)/C=C/C=C/C=C/C=C/C=C/C=C/CC(O)C(C)C(=O)CC(O)CC(O)/C=C/CC(O)CC(O)CC(O)/C=C/CC(O)CC(O)/C=C/CC(O)CC(O)CCCNC(=N)N)C(=O)O (centres unmarked) [Compound 2] |  | 4 |  | 4 |  | 4 |  | 4 |  | 8 |
| C\C(=C/C=C/C=C/CC/C=C/C(C)C(O)C(C)C(O)/C=C/C=C/C=C/C=C/C=C/C=C/CC(OS(=O)(=O)O)C(C)C(=O)CC(O)CC(O)/C=C/CC(O)CC(O)CC(O)/C=C/CC(O)CC(O)/C=C/CC(O)CC(O)CCCNC(=N)N)C(=O)O (centres unmarked) [Compound 1] | 4 |  | 4 |  | 4 |  | 4 |  | 8 |  |

From patent US20040266008A1, “Polyene polyketides, processes for their production and their use as pharmaceuticals” (Ecopia BioSciences, Inc., priority 2003, published 2004)
